# Experimental data from ChEMBL document CHEMBL1125176, “Synthesis of structural analogues of lyngbyatoxin A and their evaluation as activators of protein kinase C” (J Med Chem, 1991).
# Target: Protein kinase C (PKC) (Homo sapiens) (UniProt O94806+P41743+P17252+P05129+Q05655+P05771+Q05513+Q02156+P24723+Q15139+Q04759)
# Assay: Activation of partially purified HeLa cell protein kinase C, 32P incorporation into calf thymus histone(III-S).
row,SMILES,Activity (pM min-1 (mg of protein)-1)
1,CC(C)[C@H]1C(=O)N[C@H](CO)Cc2c[nH]c3c(CCCCO)ccc(c23)N1C,256
2,CC(C)[C@H]1C(=O)N[C@@H](CO)Cc2c[nH]c3c(CCCCO[Si](C)(C)C(C)(C)C)ccc(c23)N1C,403
3,CCCCCCc1ccc2c3c(c[nH]c13)C[C@@H](CO)NC(=O)[C@H](C(C)C)N2C,606
4,CC(C)[C@H]1C(=O)N[C@H](CO)Cc2c[nH]c3c(CCCCO[Si](C)(C)C(C)(C)C)ccc(c23)N1C,703
5,CC(C)[C@H]1C(=O)N[C@@H](CO)Cc2c[nH]c3c(CCCCO)ccc(c23)N1C,163
6,CC(C)=CCCCc1ccc2c3c(c[nH]c13)C[C@H](CO)NC(=O)[C@H](C(C)C)N2C,415
7,CC(C)[C@H]1C(=O)N[C@H](CO)Cc2c[nH]c3cccc(c23)N1C,454
8,CC(C)=CCCCc1ccc2c3c(c[nH]c13)C[C@@H](CO)NC(=O)[C@H](C(C)C)N2C,763
9,CCCCCCCCCCCCCC(=O)O[C@@H]1[C@@H](C)[C@@]2(O)[C@@H](C=C(CO)C[C@]3(O)C(=O)C(C)=C[C@@H]23)[C@@H]2C(C)(C)[C@]12OC(C)=O,899
